The target in this assay is T1, APOL1 (Homo sapiens, UniProt O14791).
T1 sequence (O14791 1-398 S342G/I384M): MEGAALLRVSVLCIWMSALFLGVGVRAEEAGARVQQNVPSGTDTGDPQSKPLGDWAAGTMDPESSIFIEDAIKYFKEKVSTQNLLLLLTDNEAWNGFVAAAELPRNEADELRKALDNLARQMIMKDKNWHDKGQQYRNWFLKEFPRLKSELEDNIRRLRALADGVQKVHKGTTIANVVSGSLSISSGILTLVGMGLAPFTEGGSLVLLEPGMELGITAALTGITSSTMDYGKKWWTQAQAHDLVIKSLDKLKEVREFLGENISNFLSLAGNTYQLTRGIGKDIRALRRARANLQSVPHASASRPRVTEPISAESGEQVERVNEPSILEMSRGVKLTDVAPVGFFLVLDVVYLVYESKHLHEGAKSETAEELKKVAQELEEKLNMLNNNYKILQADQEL
Kind of assay: MultiTox-Fluor Multiplex Cytotoxicity Assay in tet-inducible APOL1 T-REx-HEK293 cells (cell rescue, ratio of dead to live cells). The note with it: tet-inducible transgenic APOL1 T-REx-HEK293 cell lines, 50 ng/mL tet, 24 hours; read-out: IP50 (i.e., IC50 for cell proliferation). It is filed as cell-based. The gist of the method: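 T-REx-HEK293 cells with tet-inducible APOL1 were treated with compound (10 μM top, 10-point 3-fold dilution, duplicate) plus 50 ng/mL tetracycline for 24 h at 37° C, in DMEM with 2% tet-free FBS. MultiTox-Fluor protease signals gave a dead/live ratio, normalized to no tet (100% viability) and tet alone (0%).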

Each structure is given as a SMILES string.

Turning to `CCc1cc2c(s1)CCO[C@@]21CCN(CC2CN(C(=O)c3nonc3N)C2)[C@@H](C)C1` [Compound 422, (4-amino-1,2,5-oxadiazol-3-yl)-[3-[[(2′S,4R)-2-ethyl-2′-methyl-spiro[6,7-dihydrothieno[3,2-c]pyran-4,4′-piperidine]-1′-yl]methyl]azetidin-1-yl]methanone], the IC50 is less than 100 nM.

On to `CCc1cc2c(s1)CCO[C@@]21CCN(CC2CN(C(=O)c3ncccc3O)C2)[C@@H](C)C1` [Compound 423, [3-[[(2′S,4R)-2-ethyl-2′-methyl-spiro[6,7-dihydrothieno[3,2-c]pyran-4,4′-piperidine]-1′-yl]methyl]azetidin-1-yl]-(3-hydroxy-2-pyridyl)methanone], for which the IC50 was less than 100 nM.

`CCc1cc2c(s1)CCO[C@@]21CCN(CC2CN(C(=O)OC)C2)[C@@H](C)C1` [Compound 424, methyl 3-[[(2′S,4R)-2-ethyl-2′-methyl-spiro[6,7-dihydrothieno[3,2-c]pyran-4,4′-piperidine]-1′-yl]methyl]azetidine-1-carboxylate]: the IC50 lay within 500 to 1000 nM.

Take `CCc1cc2c(s1)CCO[C@@]21CCN(CC2CN(C(=O)c3ccon3)C2)[C@@H](C)C1` [Compound 425]: the IC50 is less than 100 nM.

In the case of `CCc1cc2c(s1)CCO[C@@]21CCN(CC2CN(C(=O)c3nonc3C)C2)[C@@H](C)C1` [Compound 426], the IC50 is less than 100 nM.

For the compound `CCc1cc2c(s1)CCO[C@@]21CCN(CC2CN(C(=O)c3ccnn3C)C2)[C@@H](C)C1` [Compound 427], the IC50 is less than 100 nM.

Regarding `CCc1cc2c(s1)CCO[C@@]21CCN(CC2CN(C(=O)c3cccc(CO)c3)C2)[C@@H](C)C1` [Compound 428], the IC50 was less than 100 nM.

As to `CCc1cc2c(s1)CCO[C@@]21CCN(CC2CN(C(=O)c3cnn(C)c3)C2)[C@@H](C)C1` [Compound 429], the IC50 is less than 100 nM.

On to `CCc1cc2c(s1)CCO[C@@]21CCN(CC2CN(C(=O)c3ccncc3)C2)[C@@H](C)C1` [Compound 430], for which the IC50 was less than 100 nM.

With `CCc1cc2c(s1)CCO[C@@]21CCN(CC2CN(C(=O)c3ccccc3)C2)[C@@H](C)C1` [Compound 431], the IC50 is less than 100 nM.

With `CCc1cc2c(s1)CCO[C@@]21CCN(CC2CN(C(=O)C(C)S(C)(=O)=O)C2)[C@@H](C)C1` (stereo partly shown) [Compound 432], the IC50 was less than 100 nM.

In the case of `CCc1cc2c(s1)CCO[C@@]21CCN(CC2CN(C(=O)c3cn[nH]c3)C2)[C@@H](C)C1` [Compound 433], the IC50 is less than 100 nM.

With `CCc1cc2c(s1)CCO[C@@]21CCN(CC2CN(C(=O)CCC3CCCC3)C2)[C@@H](C)C1` [Compound 434], the IC50 was less than 100 nM.

On to `CCc1cc2c(s1)CCO[C@@]21CCN(CC2CN(C(=O)CCCS(C)(=O)=O)C2)[C@@H](C)C1` [Compound 435], for which the IC50 is less than 100 nM.

With `CCc1cc2c(s1)CCO[C@@]21CCN(CC2CN(C(=O)COC)C2)[C@@H](C)C1` [Compound 436], the IC50 is less than 100 nM.

For the compound `CCc1cc2c(s1)CCO[C@@]21CCN(CC2CN(C(=O)C3(O)CCOCC3)C2)[C@@H](C)C1` [Compound 437], the IC50 was less than 100 nM.

Consider `CCc1cc2c(s1)CCO[C@@]21CCN(CC2CN(C(=O)Cc3ccncc3)C2)[C@@H](C)C1` [Compound 438], for which the IC50 is less than 100 nM.

Take `CCc1cc2c(s1)CCO[C@@]21CCN(CC2CN(C(=O)CCCOC)C2)[C@@H](C)C1` [Compound 439]: the IC50 was less than 100 nM.

`CCc1cc2c(s1)CCO[C@@]21CCN(CC2CN(C(=O)C3COCCO3)C2)[C@@H](C)C1` (stereo partly shown) [Compound 440]: the IC50 was less than 100 nM.

Turning to `CCc1cc2c(s1)CCO[C@@]21CCN(CC2CN(C(=O)Cc3ccncn3)C2)[C@@H](C)C1` [Compound 441], the IC50 was less than 100 nM.

In the case of `CCc1cc2c(s1)CCO[C@@]21CCN(CC2CN(C(=O)COC(C)(C)C)C2)[C@@H](C)C1` [Compound 442], the IC50 is less than 100 nM.

Regarding `CCc1cc2c(s1)CCO[C@@]21CCN(CC2CN(C(=O)C(C)(C)O)C2)[C@@H](C)C1` [Compound 443], the IC50 was less than 100 nM.

The values above are taken from US20250171459A1, “2-METHYL-4',5'-DIHYDROSPIRO[PIPERIDINE-4,7'-THIENO[2,3-C]PYRAN] DERIVATIVES AS INHIBITORS OF APOL1 AND METHODS OF USING SAME” (Vertex Pharmaceuticals Incorporated, priority 2022, published 2025).
